In patent US12479849B2, “EGFR inhibitors for the treatment of cancer” (Hoffmann-La Roche Inc., priority 2019, dated 2025):

What follows are compounds tested against T1, EGFR TMLRCS (Homo sapiens, UniProt P00533, C797S/L858R/T790M) (assay: HTRF Phospho EGFR TMLRCS Assay (Cellular)). Details: BaF3-TMLRCS cell line, 4 hours incubation, Phospho-EGFR HTRF readout.
T1 construct: host or cells: BaF3-TMLRCS (Ba/F3 cells, kept under puromycin selection)
Format: cell-based
Summary of the method: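 BaF3 cells expressing EGFR L858R/T790M/C797S, 20000/well, treated with compound in dose response for 4 h at 37 °C, 5% CO2. After lysis, phospho-EGFR detected by HTRF with cryptate and d2 antibodies over 4 h at room temperature. Signal taken as 665/616 nm ratio ×10000, normalized.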

T1 sequence (P00533 25-1210 T790M/C797S/L858R): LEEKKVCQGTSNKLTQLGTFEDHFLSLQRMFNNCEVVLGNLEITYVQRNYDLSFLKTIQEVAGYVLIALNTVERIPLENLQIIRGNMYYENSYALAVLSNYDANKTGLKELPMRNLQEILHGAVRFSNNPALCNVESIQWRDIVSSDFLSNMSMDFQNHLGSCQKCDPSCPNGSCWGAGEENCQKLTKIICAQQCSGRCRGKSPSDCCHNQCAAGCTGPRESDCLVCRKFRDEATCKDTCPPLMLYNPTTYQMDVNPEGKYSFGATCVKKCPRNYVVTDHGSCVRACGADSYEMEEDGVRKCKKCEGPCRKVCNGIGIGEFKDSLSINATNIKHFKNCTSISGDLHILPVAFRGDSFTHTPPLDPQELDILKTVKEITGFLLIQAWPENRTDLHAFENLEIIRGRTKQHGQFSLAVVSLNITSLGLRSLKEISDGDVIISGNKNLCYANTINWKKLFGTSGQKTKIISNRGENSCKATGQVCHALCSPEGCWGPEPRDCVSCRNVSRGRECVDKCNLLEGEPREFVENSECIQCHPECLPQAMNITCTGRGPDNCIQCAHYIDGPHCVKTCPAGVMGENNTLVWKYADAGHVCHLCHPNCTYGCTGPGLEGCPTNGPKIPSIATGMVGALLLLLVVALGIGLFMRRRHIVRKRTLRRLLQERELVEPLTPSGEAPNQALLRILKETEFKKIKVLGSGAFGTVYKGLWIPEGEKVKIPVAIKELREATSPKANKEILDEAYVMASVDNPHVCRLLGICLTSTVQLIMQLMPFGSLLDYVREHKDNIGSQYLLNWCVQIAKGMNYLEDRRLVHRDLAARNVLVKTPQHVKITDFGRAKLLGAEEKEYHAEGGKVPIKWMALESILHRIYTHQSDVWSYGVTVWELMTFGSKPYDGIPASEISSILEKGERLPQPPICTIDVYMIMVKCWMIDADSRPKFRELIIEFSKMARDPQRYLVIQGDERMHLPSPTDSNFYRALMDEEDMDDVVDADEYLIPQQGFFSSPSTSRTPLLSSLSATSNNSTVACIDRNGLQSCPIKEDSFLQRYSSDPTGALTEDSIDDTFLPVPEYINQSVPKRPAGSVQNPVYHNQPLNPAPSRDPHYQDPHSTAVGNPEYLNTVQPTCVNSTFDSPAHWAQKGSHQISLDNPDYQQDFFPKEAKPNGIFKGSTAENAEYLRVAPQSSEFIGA

SMILES | IC50 [nM]
CCN1CC[C@H](c2ccc(-c3cc(Cl)c4cn(C(C(=O)Nc5nccs5)c5ncn6c5C[C@@H](F)C6)nc4c3Cl)cc2)[C@@H](F)C1 (single isomer, unassigned) [Example 37] | 10
CCN1CC[C@@H](c2ccc(-c3cc(C)c4cn(C(C(=O)Nc5nccs5)c5ncn6c5C[C@@H](F)C6)nc4c3C)cc2)[C@H](F)C1 (single isomer, unassigned) [Example 119] | 14
CCN1CC[C@@H](c2ccc(-c3cc(C)c4cn(C(C(=O)Nc5nccs5)c5ncn6c5CCC6)nc4c3Cl)cc2)[C@H](F)C1 (single isomer, unassigned) [Example 127] | 9
CCN1CC[C@@H](c2ccc(-c3cc(C)c4cn(C(C(=O)Nc5nccs5)c5ncn6c5C[C@@H](F)C6)nc4c3Cl)cc2)[C@H](F)C1 (single isomer, unassigned) [Example 129] | 10
O=C(Nc1nccs1)C(c1ncn2c1C[C@@H](F)C2)n1cc2c(Cl)cc(-c3ccc(C4CCN(C5CC5)CC4)cc3)c(Cl)c2n1 (stereo partly drawn) [Example 28, 2-(4,7-Dichloro-6-(4-(1-cyclopropylpiperidin-4-yl)phenyl)-2H-indazol-2-yl)-2-((R)-6-fluoro-6,7-dihydro-5H-pyrrolo[1,2-c]imidazol-1-yl)-N-(thiazol-2-yl)acetamide] | 17
CCc1cc(-c2cc(Cl)c3cn(C(C(=O)Nc4nccs4)c4ncn5c4C[C@@H](F)C5)nc3c2Cl)ccc1OCCN(C)C (stereo partly drawn) [Example 40, 2-(4,7-Dichloro-6-(4-(2-(dimethylamino)ethoxy)-3-ethylphenyl)-2H-indazol-2-yl)-2-((R)-6-fluoro-6,7-dihydro-5H-pyrrolo[1,2-c]imidazol-1-yl)-N-(thiazol-2-yl)acetamide] | 8
O=C(Nc1nccs1)C(c1ncn2c1C[C@@H](F)C2)n1cc2c(Cl)cc(-c3ccc(OCCN4CCCC4)cc3)c(Cl)c2n1 (stereo partly drawn) [Example 42, 2-(4,7-Dichloro-6-(4-(2-(pyrrolidin-1-yl)ethoxy)phenyl)-2H-indazol-2-yl)-2-((R)-6-fluoro-6,7-dihydro-5H-pyrrolo[1,2-c]imidazol-1-yl)-N-(thiazol-2-yl)acetamide] | 12
CCN1C[C@H]2CC(c3ccc(-c4cc(Cl)c5cn(C(C(=O)Nc6nccs6)c6ncn7c6C[C@@H](F)C7)nc5c4Cl)cc3)C[C@H]2C1 (stereo partly drawn) [Example 43, 2-(4,7-Dichloro-6-(4-((3aR,6aS)-2-ethyloctahydrocyclopenta[c]pyrrol-5-yl)phenyl)-2H-indazol-2-yl)-2-((R)-6-fluoro-6,7-dihydro-5H-pyrrolo[1,2-c]imidazol-1-yl)-N-(thiazolyl)acetamide] | 11
CC(F)CN1CCC(c2ccc(-c3cc(Cl)c4cn(C(C(=O)Nc5nccs5)c5ncn6c5C[C@@H](F)C6)nc4c3Cl)cc2)CC1 (stereo partly drawn) [Example 44, 2-(4,7-Dichloro-6-(4-(1-(2-fluoropropyl)piperidin-4-yl)phenyl)-2H-indazol-2-yl)-2-((R)-6-fluoro-6,7-dihydro-5H-pyrrolo[1,2-c]imidazol-1-yl)-N-(thiazol-2-yl)acetamide] | 13
CCN1CCCC2(C1)CN(c1ccc(-c3cc(Cl)c4cn(C(C(=O)Nc5nccs5)c5ncn6c5C[C@@H](F)C6)nc4c3Cl)cc1)C2 (stereo partly drawn) [Example 73, 2-(4,7-Dichloro-6-(4-(6-ethyl-2,6-diazaspiro[3.5]nonan-2-yl)phenyl)-2H-indazol-2-yl)-2-((R)-6-fluoro-6,7-dihydro-5H-pyrrolo[1,2-c]imidazol-1-yl)-N-(thiazol-2-yl)acetamide] | 10
CN(CCN1CCC(CO)CC1)c1ccc(-c2cc(Cl)c3cn(C(C(=O)Nc4nccs4)c4ncn5c4C[C@@H](F)C5)nc3c2Cl)cc1 (stereo partly shown) [Example 79] | 7
CN(CCN1CCC(O)CC1)c1ccc(-c2cc(Cl)c3cn(C(C(=O)Nc4nccs4)c4ncn5c4C[C@@H](F)C5)nc3c2Cl)cc1 (stereo partly shown) [Example 80] | 8
CCN1C[C@@H]2CN(c3ccc(-c4cc(Cl)c5cn(C(C(=O)Nc6nccs6)c6ncn7c6C[C@@H](F)C7)nc5c4Cl)cc3)C[C@@H]2C1 (stereo partly drawn) [Example 81, 2-(4,7-Dichloro-6-(4-((3aR,6aS)-5-ethylhexahydropyrrolo[3,4-c]pyrrol-2(1H)-yl)phenyl)-2H-indazol-2-yl)-2-((R)-6-fluoro-6,7-dihydro-5H-pyrrolo[1,2-c]imidazol-1-yl)-N-(thiazol-2-yl)acetamide] | 9
CCN1CC2(CCCN(c3ccc(-c4cc(Cl)c5cn(C(C(=O)Nc6nccs6)c6ncn7c6C[C@@H](F)C7)nc5c4Cl)cc3)C2)C1 (stereo partly shown) [Example 82] | 11
CCN1CC(c2ccc(-c3cc(Cl)c4cn(C(C(=O)Nc5nccs5)c5ncn6c5C[C@@H](F)C6)nc4c3Cl)cc2)C1 (stereo partly drawn) [Example 83, 2-(4,7-Dichloro-6-(4-(1-ethylazetidin-3-yl)phenyl)-2H-indazol-2-yl)-2-((R)-6-fluoro-6,7-dihydro-5H-pyrrolo[1,2-c]imidazol-1-yl)-N-(thiazol-2-yl)acetamide] | 10
O=C(Nc1nccs1)C(c1ncn2c1C[C@@H](F)C2)n1cc2c(Cl)cc(-c3ccc(C4CN(CCO)C4)cc3)c(Cl)c2n1 (stereo partly drawn) [Example 84, 2-(4,7-Dichloro-6-(4-(1-(2-hydroxyethyl)azetidin-3-yl)phenyl)-2H-indazol-2-yl)-2-((R)-6-fluoro-6,7-dihydro-5H-pyrrolo[1,2-c]imidazol-1-yl)-N-(thiazol-2-yl)acetamide] | 12
O=C(Nc1nccs1)C(c1ncn2c1C[C@@H](F)C2)n1cc2c(Cl)cc(-c3ccc(OCCN4CC5(CC(O)C5)C4)cc3)c(Cl)c2n1 (stereo partly drawn) [Example 88, 2-(4,7-Dichloro-6-(4-(2-(6-hydroxy-2-azaspiro[3.3]heptan-2-yl)ethoxy)phenyl)-2H-indazol-2-yl)-2-((R)-6-fluoro-6,7-dihydro-5H-pyrrolo[1,2-c]imidazol-1-yl)-N-(thiazol-2-yl)acetamide] | 7

Continued by falling IC50, values first:

IC50 [nM] | SMILES
7 | O=C(Nc1nccs1)C(c1ncn2c1C[C@@H](F)C2)n1cc2c(Cl)cc(-c3ccc(C4CCN(CCF)CC4)cc3)c(Cl)c2n1 (stereo partly drawn) [Example 33, 2-(4,7-Dichloro-6-(4-(1-(2-fluoroethyl)piperidin-4-yl)phenyl)-2H-indazol-2-yl)-2-((R)-6-fluoro-6,7-dihydro-5H-pyrrolo[1,2-c]imidazol-1-yl)-N-(thiazol-2-yl)acetamide]
6 | CN(C)CCc1ccc(-c2cc(Cl)c3cn(C(C(=O)Nc4nccs4)c4ncn5c4C[C@@H](F)C5)nc3c2Cl)cc1 (stereo partly drawn) [Example 35, 2-(4,7-Dichloro-6-(4-(2-(dimethylamino)ethyl)phenyl)-2H-indazol-2-yl)-2-((R)-6-fluoro-6,7-dihydro-5H-pyrrolo[1,2-c]imidazol-1-yl)-N-(thiazol-2-yl)acetamide]
5 | O=C(Nc1nccs1)C(c1ncn2c1C[C@@H](F)C2)n1cc2c(Cl)cc(-c3cnc(N4CCOCC4)nc3)c(Cl)c2n1 (stereo partly drawn) [Example 27, 2-(4,7-Dichloro-6-(2-morpholinopyrimidin-5-yl)-2H-indazol-2-yl)-2-((R)-6-fluoro-6,7-dihydro-5H-pyrrolo[1,2-c]imidazol-1-yl)-N-(thiazol-2-yl)acetamide]
5 | O=C(Nc1nccs1)C(c1ncn2c1C[C@@H](F)C2)n1cc2c(Cl)cc(-c3ccc([C@@H]4CCN(CCO)C[C@H]4F)cc3)c(Cl)c2n1 (single isomer, unassigned) [Example 54]
5 | O=C(Nc1nccs1)C(c1ncn2c1C[C@@H](F)C2)n1cc2c(Cl)cc(-c3ccc([C@@H]4CCN(C5CC(O)C5)C[C@H]4F)cc3)c(Cl)c2n1 (single isomer, unassigned) [Example 55]
4 | CCN1CCN(c2ccc(-c3cc(Cl)c4cn(C(C(=O)Nc5nccs5)c5ncn6c5C[C@@H](F)C6)nc4c3Cl)cc2)CC1 (stereo partly drawn) [Example 26, 2-(4,7-Dichloro-6-(4-(4-ethylpiperazin-1-yl)phenyl)-2H-indazol-2-yl)-2-((R)-6-fluoro-6,7-dihydro-5H-pyrrolo[1,2-c]imidazol-1-yl)-N-(thiazol-2-yl)acetamide]
4 | COCCN1CCC(c2ccc(-c3cc(Cl)c4cn(C(C(=O)Nc5nccs5)c5ncn6c5C[C@@H](F)C6)nc4c3Cl)cc2)CC1 (stereo partly drawn) [Example 45, 2-(4,7-Dichloro-6-(4-(1-(2-methoxyethyl)piperidin-4-yl)phenyl)-2H-indazol-2-yl)-2-((R)-6-fluoro-6,7-dihydro-5H-pyrrolo[1,2-c]imidazol-1-yl)-N-(thiazol-2-yl)acetamide]
4 | O=C(Nc1nccs1)C(c1ncn2c1C[C@@H](F)C2)n1cc2c(Cl)cc(-c3ccc(CN4CCC(F)(CO)CC4)cc3)c(Cl)c2n1 (stereo partly drawn) [Example 65, 2-(4,7-Dichloro-6-(4-((4-fluoro-4-(hydroxymethyl)piperidin-1-yl)methyl)phenyl)-2H-indazol-2-yl)-2-((R)-6-fluoro-6,7-dihydro-5H-pyrrolo[1,2-c]imidazol-1-yl)-N-(thiazol-2-yl)acetamide]
4 | O=C(Nc1nccs1)C(c1ncn2c1C[C@@H](F)C2)n1cc2c(Cl)cc(-c3ccc(N4CC5(CCNCC5)C4)cc3)c(Cl)c2n1 (stereo partly drawn) [Example 69, 2-(6-(4-(2,7-Diazaspiro[3.5]nonan-2-yl)phenyl)-4,7-dichloro-2H-indazol-2-yl)-2-((R)-6-fluoro-6,7-dihydro-5H-pyrrolo[1,2-c]imidazol-1-yl)-N-(thiazol-2-yl)acetamide]
4 | CN1CCC(Oc2ccc(-c3cc(Cl)c4cn(C(C(=O)Nc5nccs5)c5ncn6c5C[C@@H](F)C6)nc4c3Cl)cc2)CC1 (stereo partly drawn) [Example 85, 2-(4,7-Dichloro-6-(4-((l-methylpiperidin-4-yl)oxy)phenyl)-2H-indazol-2-yl)-2-((R)-6-fluoro-6,7-dihydro-5H-pyrrolo[1,2-c]imidazol-1-yl)-N-(thiazol-2-yl)acetamide]
3 | O=C(Nc1nccs1)C(c1ncn2c1C[C@@H](F)C2)n1cc2c(Cl)cc(-c3ccc(CN4CCC(CCO)CC4)cc3)c(Cl)c2n1 (stereo partly drawn) [Example 78, 2-(4,7-Dichloro-6-(4-((4-(2-hydroxyethyl)piperidin-1-yl)methyl)phenyl)-2H-indazol-2-yl)-2-((R)-6-fluoro-6,7-dihydro-5H-pyrrolo[1,2-c]imidazol-1-yl)-N-(thiazol-2-yl)acetamide]
